Laboratory results from the kinase profiling compilation of Christmann-Franck et al. (2016).

How the values were obtained:
Assay in all cases: KINOMEscan competition binding
Settings in all cases: compound 10.0 µM
[1] = target: ACVR2B (human) (UniProt Q13705)
[2] = target: ADCK3 (human) (UniProt Q8NI60)
[3] = target: AURKA (human) (UniProt O14965)
[4] = target: BMPR1A (human) (UniProt P36894)
[5] = target: BRSK1 (human) (UniProt Q8TDC3)
[6] = target: CAMK2A (human) (UniProt Q9UQM7)
[7] = target: CAMK2G (human) (UniProt Q13555)
[8] = target: CLK3 (human) (UniProt P49761)
[9] = target: CSF1R (human) (UniProt P07333)
[10] = target: CSNK1A1L (human) (UniProt Q8N752)
[11] = target: DAPK2 (human) (UniProt Q9UIK4)
[12] = target: DCLK1 (human) (UniProt O15075)
[13] = target: DDR2 (human) (UniProt Q16832)
[14] = target: EPHA4 (human) (UniProt P54764)
[15] = target: EPHA7 (human) (UniProt Q15375)
[16] = target: FLT3 (human) (UniProt P36888)
[17] = target: FRK (human) (UniProt P42685)
[18] = target: FYN (human) (UniProt P06241)
[19] = target: HIPK1 (human) (UniProt Q86Z02)
[20] = target: INSR (human) (UniProt P06213)
[21] = target: INSRR (human) (UniProt P14616)
[22] = target: LIMK2 (human) (UniProt P53671)
[23] = target: MAP2K3 (human) (UniProt P46734)
[24] = target: MAP3K7 (human) (UniProt O43318)
[25] = target: MAP3K9 (human) (UniProt P80192)
[26] = target: MAPK14 (human) (UniProt Q16539)
[27] = target: MAPK4 (human) (UniProt P31152)
[28] = target: MAPK7 (human) (UniProt Q13164)
[29] = target: PAK7 (human) (UniProt Q9P286)
[30] = target: PHKG2 (human) (UniProt P15735)
[31] = target: PKMYT1 (human) (UniProt Q99640)
[32] = target: PLK3 (human) (UniProt Q9H4B4)
[33] = target: PRKACA (human) (UniProt P17612)
[34] = target: ROCK2 (human) (UniProt O75116)
[35] = target: RPS6KA5 KD2 (human) (UniProt O75582)
[36] = target: SIK2 (human) (UniProt Q9H0K1)
[37] = target: STK11 (human) (UniProt Q15831)
[38] = target: TGFBR2 (human) (UniProt P37173)
[39] = target: TLK1 (human) (UniProt Q9UKI8)
[40] = target: ULK2 (human) (UniProt Q8IYT8)

Sequence of CAMK2A (human) (Q9UQM7 whole entry, looked up): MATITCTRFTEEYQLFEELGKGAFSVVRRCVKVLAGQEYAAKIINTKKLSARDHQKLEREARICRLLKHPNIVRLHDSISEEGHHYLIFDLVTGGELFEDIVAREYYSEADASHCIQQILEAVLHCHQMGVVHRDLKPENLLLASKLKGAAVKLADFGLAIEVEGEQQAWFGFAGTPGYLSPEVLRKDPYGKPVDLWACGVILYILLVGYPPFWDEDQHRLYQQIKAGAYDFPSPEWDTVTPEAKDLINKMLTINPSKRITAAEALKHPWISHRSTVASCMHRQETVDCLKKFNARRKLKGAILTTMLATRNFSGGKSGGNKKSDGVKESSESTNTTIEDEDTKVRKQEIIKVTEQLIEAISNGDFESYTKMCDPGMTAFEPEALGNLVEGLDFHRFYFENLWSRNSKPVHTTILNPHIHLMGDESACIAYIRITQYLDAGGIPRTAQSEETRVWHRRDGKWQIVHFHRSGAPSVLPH
Sequence of MAPK7 (human) (Q13164 whole entry, looked up): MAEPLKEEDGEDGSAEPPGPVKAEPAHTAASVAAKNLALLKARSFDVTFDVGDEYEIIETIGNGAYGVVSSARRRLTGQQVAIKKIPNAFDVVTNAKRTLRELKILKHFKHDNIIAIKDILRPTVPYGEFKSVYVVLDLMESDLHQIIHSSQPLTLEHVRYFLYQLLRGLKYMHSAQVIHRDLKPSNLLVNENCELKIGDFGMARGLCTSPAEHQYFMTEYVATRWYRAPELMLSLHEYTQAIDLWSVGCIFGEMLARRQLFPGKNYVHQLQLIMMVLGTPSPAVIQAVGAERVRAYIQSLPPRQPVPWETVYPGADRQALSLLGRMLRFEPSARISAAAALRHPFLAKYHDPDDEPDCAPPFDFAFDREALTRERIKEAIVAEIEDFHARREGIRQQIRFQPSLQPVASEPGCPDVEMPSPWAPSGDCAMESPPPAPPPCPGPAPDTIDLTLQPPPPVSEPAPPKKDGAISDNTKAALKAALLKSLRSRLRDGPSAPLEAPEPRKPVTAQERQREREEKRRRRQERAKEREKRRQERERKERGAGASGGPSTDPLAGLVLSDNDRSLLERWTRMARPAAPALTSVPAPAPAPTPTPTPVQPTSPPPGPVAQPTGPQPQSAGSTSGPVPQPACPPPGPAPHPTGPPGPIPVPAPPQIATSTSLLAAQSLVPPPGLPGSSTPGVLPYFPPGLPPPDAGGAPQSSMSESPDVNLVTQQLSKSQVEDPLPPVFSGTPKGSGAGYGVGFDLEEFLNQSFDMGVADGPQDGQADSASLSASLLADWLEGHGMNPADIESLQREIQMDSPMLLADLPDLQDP
Sequence of BRSK1 (human) (Q8TDC3 whole entry, looked up): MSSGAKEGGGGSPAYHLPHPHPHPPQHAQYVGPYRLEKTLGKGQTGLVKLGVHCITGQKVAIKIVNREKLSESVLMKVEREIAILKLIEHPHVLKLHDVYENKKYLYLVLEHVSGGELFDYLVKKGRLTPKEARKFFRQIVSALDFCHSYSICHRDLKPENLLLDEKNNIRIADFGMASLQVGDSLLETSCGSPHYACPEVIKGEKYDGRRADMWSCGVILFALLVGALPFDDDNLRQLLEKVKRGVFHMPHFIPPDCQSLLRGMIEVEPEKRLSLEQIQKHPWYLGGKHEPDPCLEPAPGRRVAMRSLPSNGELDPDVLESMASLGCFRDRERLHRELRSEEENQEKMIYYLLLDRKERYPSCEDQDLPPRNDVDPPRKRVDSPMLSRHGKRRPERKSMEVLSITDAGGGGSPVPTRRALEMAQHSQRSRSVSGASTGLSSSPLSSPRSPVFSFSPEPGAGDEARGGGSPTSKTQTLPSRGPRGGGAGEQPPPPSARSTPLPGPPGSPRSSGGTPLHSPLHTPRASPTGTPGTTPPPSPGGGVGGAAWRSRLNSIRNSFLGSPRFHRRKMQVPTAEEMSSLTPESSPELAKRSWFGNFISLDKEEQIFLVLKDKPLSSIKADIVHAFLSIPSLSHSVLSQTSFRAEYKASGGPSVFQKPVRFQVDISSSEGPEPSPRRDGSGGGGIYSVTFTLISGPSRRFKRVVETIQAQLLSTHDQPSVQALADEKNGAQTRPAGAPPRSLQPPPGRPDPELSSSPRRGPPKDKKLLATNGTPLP
Sequence of PKMYT1 (human) (Q99640 whole entry, looked up): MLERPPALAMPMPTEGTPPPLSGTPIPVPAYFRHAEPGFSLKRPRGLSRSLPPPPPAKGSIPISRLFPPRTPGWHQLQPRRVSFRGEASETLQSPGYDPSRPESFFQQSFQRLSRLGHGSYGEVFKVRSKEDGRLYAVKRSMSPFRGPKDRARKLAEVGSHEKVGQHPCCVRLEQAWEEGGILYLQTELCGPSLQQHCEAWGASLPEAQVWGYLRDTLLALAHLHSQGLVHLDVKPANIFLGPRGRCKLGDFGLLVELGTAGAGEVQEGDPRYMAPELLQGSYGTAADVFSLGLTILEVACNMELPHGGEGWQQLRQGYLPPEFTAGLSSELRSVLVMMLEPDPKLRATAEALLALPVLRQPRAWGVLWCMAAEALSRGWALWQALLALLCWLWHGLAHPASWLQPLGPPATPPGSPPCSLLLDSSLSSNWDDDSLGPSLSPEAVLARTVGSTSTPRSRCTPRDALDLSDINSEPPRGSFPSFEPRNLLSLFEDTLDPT
Sequence of ACVR2B (human) (Q13705 whole entry, looked up): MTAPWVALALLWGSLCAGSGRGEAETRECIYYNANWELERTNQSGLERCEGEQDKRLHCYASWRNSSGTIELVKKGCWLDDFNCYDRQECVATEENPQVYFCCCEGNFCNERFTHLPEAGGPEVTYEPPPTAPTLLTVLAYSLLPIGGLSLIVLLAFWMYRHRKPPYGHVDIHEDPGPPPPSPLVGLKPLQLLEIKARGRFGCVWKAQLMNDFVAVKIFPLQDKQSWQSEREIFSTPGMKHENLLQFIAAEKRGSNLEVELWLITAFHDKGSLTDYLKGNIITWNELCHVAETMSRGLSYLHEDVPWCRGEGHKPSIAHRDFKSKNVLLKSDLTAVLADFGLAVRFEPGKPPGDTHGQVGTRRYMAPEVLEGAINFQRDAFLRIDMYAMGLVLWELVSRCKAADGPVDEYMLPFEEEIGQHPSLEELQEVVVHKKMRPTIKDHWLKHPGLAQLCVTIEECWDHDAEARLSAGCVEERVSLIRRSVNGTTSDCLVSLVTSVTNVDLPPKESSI
Sequence of DDR2 (human) (Q16832 whole entry, looked up): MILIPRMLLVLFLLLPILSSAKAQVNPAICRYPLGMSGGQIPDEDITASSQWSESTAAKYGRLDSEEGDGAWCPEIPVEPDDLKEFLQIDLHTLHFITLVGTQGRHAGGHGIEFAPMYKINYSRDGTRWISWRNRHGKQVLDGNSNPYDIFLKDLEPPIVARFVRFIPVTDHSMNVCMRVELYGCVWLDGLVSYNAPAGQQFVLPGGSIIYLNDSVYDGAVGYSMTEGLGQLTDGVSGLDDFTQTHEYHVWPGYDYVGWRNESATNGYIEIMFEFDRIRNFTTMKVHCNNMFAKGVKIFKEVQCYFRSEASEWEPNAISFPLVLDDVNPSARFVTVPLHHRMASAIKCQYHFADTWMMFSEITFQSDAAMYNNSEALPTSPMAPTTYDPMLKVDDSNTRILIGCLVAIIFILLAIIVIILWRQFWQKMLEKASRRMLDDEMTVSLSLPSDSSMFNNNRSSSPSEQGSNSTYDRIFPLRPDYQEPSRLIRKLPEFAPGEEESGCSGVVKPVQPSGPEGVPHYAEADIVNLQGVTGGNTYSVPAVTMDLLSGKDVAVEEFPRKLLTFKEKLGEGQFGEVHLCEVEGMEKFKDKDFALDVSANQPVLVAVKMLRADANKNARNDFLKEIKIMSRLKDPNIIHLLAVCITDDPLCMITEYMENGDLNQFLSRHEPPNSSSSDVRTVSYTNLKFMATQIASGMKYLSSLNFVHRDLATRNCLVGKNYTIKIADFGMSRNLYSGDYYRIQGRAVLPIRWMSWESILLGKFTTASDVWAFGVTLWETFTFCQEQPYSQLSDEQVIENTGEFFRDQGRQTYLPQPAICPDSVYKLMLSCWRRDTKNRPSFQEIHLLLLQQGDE
Sequence of DCLK1 (human) (O15075 whole entry, looked up): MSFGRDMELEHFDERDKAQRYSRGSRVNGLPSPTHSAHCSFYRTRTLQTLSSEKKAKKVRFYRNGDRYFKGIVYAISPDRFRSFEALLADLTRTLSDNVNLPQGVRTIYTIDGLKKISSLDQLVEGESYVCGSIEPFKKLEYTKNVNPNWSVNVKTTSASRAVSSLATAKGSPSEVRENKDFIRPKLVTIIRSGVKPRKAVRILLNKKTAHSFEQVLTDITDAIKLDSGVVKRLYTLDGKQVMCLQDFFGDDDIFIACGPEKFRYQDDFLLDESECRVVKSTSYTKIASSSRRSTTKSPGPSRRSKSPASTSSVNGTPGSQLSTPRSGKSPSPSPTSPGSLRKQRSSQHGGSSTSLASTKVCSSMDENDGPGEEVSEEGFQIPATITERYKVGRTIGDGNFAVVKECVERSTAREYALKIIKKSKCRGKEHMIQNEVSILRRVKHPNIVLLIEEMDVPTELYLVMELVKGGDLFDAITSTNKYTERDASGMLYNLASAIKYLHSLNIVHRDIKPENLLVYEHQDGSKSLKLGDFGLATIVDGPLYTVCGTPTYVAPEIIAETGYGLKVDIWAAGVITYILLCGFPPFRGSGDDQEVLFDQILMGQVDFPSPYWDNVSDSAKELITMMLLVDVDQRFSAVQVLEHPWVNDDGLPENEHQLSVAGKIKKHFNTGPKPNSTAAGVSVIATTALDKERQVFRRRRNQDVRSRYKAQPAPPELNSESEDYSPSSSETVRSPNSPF
Sequence of MAPK14 (human) (Q16539 whole entry, looked up): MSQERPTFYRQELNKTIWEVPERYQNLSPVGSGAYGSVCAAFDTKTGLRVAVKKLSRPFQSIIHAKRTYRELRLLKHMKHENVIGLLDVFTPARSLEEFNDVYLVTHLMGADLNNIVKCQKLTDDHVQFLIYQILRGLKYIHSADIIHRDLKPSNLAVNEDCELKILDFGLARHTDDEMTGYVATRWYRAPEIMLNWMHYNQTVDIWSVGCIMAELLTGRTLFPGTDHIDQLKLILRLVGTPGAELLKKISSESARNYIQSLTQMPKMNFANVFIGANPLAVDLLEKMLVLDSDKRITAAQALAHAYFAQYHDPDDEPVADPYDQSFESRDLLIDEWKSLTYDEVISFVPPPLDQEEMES

`C=CC(=O)Nc1cc(NC(=O)c2ccc(C)c(NC(=O)c3ccno3)c2)cc(C(F)(F)F)c1` was tested, and the kinase still bound, per cent of control [1] was 100%, the kinase still bound, per cent of control [2] was 100% and the kinase still bound, per cent of control [3] was 95%. It also gave a kinase still bound, per cent of control [4] of 100%, a kinase still bound, per cent of control [5] of 100% and a kinase still bound, per cent of control [6] of 91%. It also gave a kinase still bound, per cent of control [7] of 89%, a kinase still bound, per cent of control [8] of 100% and a kinase still bound, per cent of control [9] of 38%. For the same molecule, the kinase still bound, per cent of control [10] was 90%, the kinase still bound, per cent of control [11] was 97% and the kinase still bound, per cent of control [12] was 100%. The kinase still bound, per cent of control [13] was 40%, the kinase still bound, per cent of control [14] was 48% and the kinase still bound, per cent of control [15] was 77%. It also gave a kinase still bound, per cent of control [16] of 100%, a kinase still bound, per cent of control [17] of 12% and a kinase still bound, per cent of control [18] of 73%. It also gave a kinase still bound, per cent of control [19] of 97%, a kinase still bound, per cent of control [20] of 92% and a kinase still bound, per cent of control [21] of 100%. The kinase still bound, per cent of control [22] was 96%, the kinase still bound, per cent of control [23] was 100% and the kinase still bound, per cent of control [24] was 98%. For the same molecule, the kinase still bound, per cent of control [25] was 98%, the kinase still bound, per cent of control [26] was 0.5% and the kinase still bound, per cent of control [27] was 100%. For the same molecule, the kinase still bound, per cent of control [28] was 92%, the kinase still bound, per cent of control [29] was 94% and the kinase still bound, per cent of control [30] was 95%. It also gave a kinase still bound, per cent of control [31] of 83%, a kinase still bound, per cent of control [32] of 100% and a kinase still bound, per cent of control [33] of 100%. It also gave a kinase still bound, per cent of control [34] of 85%, a kinase still bound, per cent of control [35] of 90% and a kinase still bound, per cent of control [36] of 100%. For the same molecule, the kinase still bound, per cent of control [37] was 100%, the kinase still bound, per cent of control [38] was 93% and the kinase still bound, per cent of control [39] was 100%. The kinase still bound, per cent of control [40] was 100%.
